Results: patent US10519152B2, “Compounds and their use in treating cancer” (AstraZeneca AB, priority 2017, dated 2019)

Biological target: T1, Estrogen Receptor (ERα) in MCF-7 human ductal carcinoma breast cell line (Homo sapiens, UniProt P03372)
T1 construct: endogenous in cells; host or cells: MCF-7
T1 sequence (P03372 1-595): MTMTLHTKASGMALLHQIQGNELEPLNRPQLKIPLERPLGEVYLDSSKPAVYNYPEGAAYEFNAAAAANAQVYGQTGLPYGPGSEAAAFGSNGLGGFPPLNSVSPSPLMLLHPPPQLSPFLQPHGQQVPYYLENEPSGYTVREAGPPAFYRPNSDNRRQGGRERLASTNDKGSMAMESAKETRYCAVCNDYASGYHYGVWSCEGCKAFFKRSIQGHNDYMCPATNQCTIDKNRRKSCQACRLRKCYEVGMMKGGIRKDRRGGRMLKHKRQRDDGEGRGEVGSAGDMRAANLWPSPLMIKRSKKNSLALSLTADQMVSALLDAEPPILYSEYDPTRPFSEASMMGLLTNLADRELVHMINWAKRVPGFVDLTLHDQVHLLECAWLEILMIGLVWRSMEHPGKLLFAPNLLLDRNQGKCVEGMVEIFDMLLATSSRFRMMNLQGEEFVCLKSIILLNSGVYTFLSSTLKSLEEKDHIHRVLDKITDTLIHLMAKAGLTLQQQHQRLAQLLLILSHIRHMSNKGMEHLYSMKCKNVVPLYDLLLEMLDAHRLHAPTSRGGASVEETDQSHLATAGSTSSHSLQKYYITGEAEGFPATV
Experiment: MCF-7 ER degradation assay (cell based immuno-fluorescence)
Settings: MCF-7 cells; for ER degradation ≥ 90% at 0.3 μM: ER degradation by fulvestrant at 0.3 μM is defined as 100%; for DC50: 18-22 hours incubation, 50% reduction of ERα expression, single experiment or average of two or more, read-out: MCF-7 ER degradation IC50
Summary of the method: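 MCF-7 human ductal carcinoma breast cells were seeded at 3.75×10^4 cells per mL (40 μL per well) in 384 well plates with phenol red free DMEM containing 2 mM L-Glutamine and 5% (v/v) Charcoal/Dextran treated foetal calf serum. After overnight culture, compounds were acoustically dispensed, incubated 18-22 hours, then cells were formaldehyde-fixed and immunostained for ERα.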

Row | Structure (SMILES) | ER degradation ≥ 90% at 0.3 μM | DC50 [nM]
1 | Cc1ncsc1-c1ccc(CNC(=O)[C@@H]2C[C@@H](O)CN2C(=O)[C@@H](NC(=O)COCCCCCOc2cc(F)c([C@@H]3c4[nH]c5ccccc5c4C[C@@H](C)N3CC(C)(C)F)c(F)c2)C(C)(C)C)cc1 [Example 18, (2S,4R)-1-((S)-2-(2-((5-(3,5-Difluoro-4-((1R,3R)-2-(2-fluoro-2-methylpropyl)-3-methyl-2,3,4,9-tetrahydro-1H-pyrido[3,4-b]indol-1-yl)phenoxy)pentyl)oxy)acetamido)-3,3-dimethylbutanoyl)-4-hydroxy-N-(4-(4-methylthiazol-5-yl)benzyl)pyrrolidine-2-carboxamide] | • | 1
2 | Cc1ncsc1-c1ccc(CNC(=O)[C@@H]2C[C@@H](O)CN2C(=O)[C@@H](NC(=O)COc2cccc(COc3cc(F)c([C@@H]4c5[nH]c6ccccc6c5C[C@@H](C)N4CC(C)(C)F)c(F)c3)c2)C(C)(C)C)cc1 [Example 20, (2S,4R)-1-((S)-2-(2-(3-((3,5-difluoro-4-((1R,3R)-2-(2-fluoro-2-methylpropyl)-3-methyl-2,3,4,9-tetrahydro-1H-pyrido[3,4-b]indol-1-yl)phenoxy)methyl)phenoxy)acetamido)-3,3-dimethylbutanoyl)-4-hydroxy-N-(4-(4-methylthiazol-5-yl)benzyl)pyrrolidine-2-carboxamide] | • | 1.7
3 | Cc1ncsc1-c1ccc(CNC(=O)[C@@H]2C[C@@H](O)CN2C(=O)[C@@H](NC(=O)COCC/C=C/CCOc2cc(F)c([C@@H]3c4[nH]c5ccccc5c4C[C@@H](C)N3CC(C)(C)F)c(F)c2)C(C)(C)C)cc1 [Example 22, (2S,4R)-1-((S)-2-(2-(((E)-6-(3,5-Difluoro-4-((1R,3R)-2-(2-fluoro-2-methylpropyl)-3-methyl-2,3,4,9-tetrahydro-1H-pyrido[3,4-b]indol-1-yl)phenoxy)hex-3-en-1-yl)oxy)acetamido)-3,3-dimethylbutanoyl)-4-hydroxy-N-(4-(4-methylthiazol-5-yl)benzyl)pyrrolidine-2-carboxamide] | • | 3
4 | Cc1ncsc1-c1ccc(CNC(=O)[C@@H]2C[C@@H](O)CN2C(=O)[C@@H](NC(=O)COCCC(C)(C)CCOc2cc(F)c([C@@H]3c4[nH]c5ccccc5c4C[C@@H](C)N3CC(C)(C)F)c(F)c2)C(C)(C)C)cc1 [Example 23, (2S,4R)-1-((S)-2-(2-((5-(3,5-Difluoro-4-((1R,3R)-2-(2-fluoro-2-methylpropyl)-3-methyl-2,3,4,9-tetrahydro-1H-pyrido[3,4-b]indol-1-yl)phenoxy)-3,3-dimethylpentyl)oxy)acetamido)-3,3-dimethylbutanoyl)-4-hydroxy-N-(4-(4-methylthiazol-5-yl)benzyl)pyrrolidine-2-carboxamide] | •• | 1
5 | Cc1ncsc1-c1ccc(CNC(=O)[C@@H]2C[C@@H](O)CN2C(=O)[C@@H](NC(=O)COCCCOCCOc2ccc([C@@H]3c4[nH]c5ccccc5c4C[C@@H](C)N3CC(F)F)nc2)C(C)(C)C)cc1 [Example 26, (2S,4R)-1-((S)-2-(2-(3-(2-((6-((1S,3R)-2-(2,2-Difluoroethyl)-3-methyl-2,3,4,9-tetrahydro-1H-pyrido[3,4-b]indol-1-yl)pyridin-3-yl)oxy)ethoxy)propoxy)acetamido)-3,3-dimethylbutanoyl)-4-hydroxy-N-(4-(4-methylthiazol-5-yl)benzyl)pyrrolidine-2-carboxamide] | • | 7.5
6 | Cc1ncsc1-c1ccc([C@H](C)NC(=O)[C@@H]2C[C@@H](O)CN2C(=O)[C@@H](NC(=O)COCCCCCOc2cc(F)c([C@@H]3c4[nH]c5ccccc5c4C[C@@H](C)N3CC(C)(C)F)c(F)c2)C(C)(C)C)cc1 [Example 28, (2S,4R)-1-((S)-2-(2-((5-(3,5-Difluoro-4-((1R,3R)-2-(2-fluoro-2-methylpropyl)-3-methyl-2,3,4,9-tetrahydro-1H-pyrido[3,4-b]indol-1-yl)phenoxy)pentyl)oxy)acetamido)-3,3-dimethylbutanoyl)-4-hydroxy-N—((S)-1-(4-(4-methylthiazol-5-yl)phenyl)ethyl)pyrrolidine-2-carboxamide] | • | 0.8
7 | COC(=O)[C@@H](C)CN1[C@H](c2c(F)cc(OCCOCCOCCOCC(=O)N[C@H](C(=O)N3C[C@H](O)C[C@H]3C(=O)NCc3ccc(-c4scnc4C)cc3)C(C)(C)C)cc2F)c2[nH]c3ccccc3c2C[C@H]1C [Example 29] | •• | 2.4
8 | Cc1ncsc1-c1ccc(CNC(=O)[C@@H]2C[C@@H](O)CN2C(=O)[C@@H](NC(=O)CCCCCCCCCCOc2cc(F)c([C@@H]3c4[nH]c5ccccc5c4C[C@@H](C)N3CC(C)(C)F)c(F)c2)C(C)(C)C)cc1 [Example 32, (2S,4R)-1-((S)-2-(11-(3,5-Difluoro-4-((1R,3R)-2-(2-fluoro-2-methylpropyl)-3-methyl-2,3,4,9-tetrahydro-1H-pyrido[3,4-b]indol-1-yl)phenoxy)undecanamido)-3,3-dimethylbutanoyl)-4-hydroxy-N-(4-(4-methylthiazol-5-yl)benzyl)pyrrolidine-2-carboxamide] | • | 13
9 | Cc1ncsc1-c1ccc(CNC(=O)[C@@H]2C[C@@H](OC(=O)[C@@H]3CCCN3)CN2C(=O)[C@@H](NC(=O)CCCCCCCCCCOc2cc(F)c([C@@H]3c4[nH]c5ccccc5c4C[C@@H](C)N3CC(C)(C)F)c(F)c2)C(C)(C)C)cc1 [Example 33, (3R,5S)-1-((S)-2-(11-(3,5-Difluoro-4-((1R,3R)-2-(2-fluoro-2-methylpropyl)-3-methyl-2,3,4,9-tetrahydro-1H-pyrido[3,4-b]indol-1-yl)phenoxy)undecanamido)-3,3-dimethylbutanoyl)-5-((4-(4-methylthiazol-5-yl)benzyl)carbamoyl)pyrrolidin-3-yl L-prolinate] | •• | 29
10 | CC(=O)O[C@@H]1C[C@@H](C(=O)NCc2ccc(-c3scnc3C)cc2)N(C(=O)[C@@H](NC(=O)COCCOCCOCCOc2cc(F)c([C@@H]3c4[nH]c5ccccc5c4C[C@@H](C)N3CC(C)(C)F)c(F)c2)C(C)(C)C)C1 [Example 34, (3R,5S)-1-((S)-2-(tert-Butyl)-14-(3,5-difluoro-4-((1R,3R)-2-(2-fluoro-2-methylpropyl)-3-methyl-2,3,4,9-tetrahydro-1H-pyrido[3,4-b]indol-1-yl)phenoxy)-4-oxo-6,9,12-trioxa-3-azatetradecanoyl)-5-((4-(4-methylthiazol-5-yl)benzyl)carbamoyl)pyrrolidin-3-yl Acetate] | • | 1
11 | Cc1ncsc1-c1ccc(CNC(=O)[C@@H]2C[C@@H](O)CN2C(=O)[C@@H](NC(=O)COCCOCCOCCOCCOc2cc(F)c([C@@H]3c4[nH]c5ccccc5c4C[C@@H](C)N3CC(C)(C)F)c(F)c2)C(C)(C)C)cc1 [Example 37, (2S,4R)-1-((S)-2-(tert-Butyl)-17-(3,5-difluoro-4-((1R,3R)-2-(2-fluoro-2-methylpropyl)-3-methyl-2,3,4,9-tetrahydro-1H-pyrido[3,4-b]indol-1-yl)phenoxy)-4-oxo-6,9,12,15-tetraoxa-3-azaheptadecanoyl)-4-hydroxy-N-(4-(4-methylthiazol-5-yl)benzyl)pyrrolidine-2-carboxamide] | •• | 3
